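Briefly, cells in 96-well plates were exposed to five compound concentrations for 48 h, and endpoints were estimated by linear interpolation. The concentration for 50% growth inhibition is given as GI50. TGI denotes the concentration required for complete inhibition of growth.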
How the values were obtained:
Assay in all cases: inhibition of tumour cell growth, NCI panel, 48 h
CCRF-CEM leukemia = system: CCRF-CEM leukemia
UO-31 renal = system: UO-31 renal
RXF 393 renal = system: RXF 393 renal
MDA-MB-435 = system: MDA-MB-435
RPMI-8226 leukemia = system: RPMI-8226 leukemia
HCC-2998 colon = system: HCC-2998 colon
COLO 205 colon = system: COLO 205 colon
BT-549 breast = system: BT-549 breast
SF-539 CNS = system: SF-539 CNS
NCI-H226 lung = system: NCI-H226 lung

Row | SMILES | TGI (CCRF-CEM leukemia) [µM] | TGI (UO-31 renal) [µM] | TGI (RXF 393 renal) [µM] | TGI (MDA-MB-435) [µM] | TGI (RPMI-8226 leukemia) [µM] | TGI (HCC-2998 colon) [µM] | TGI (COLO 205 colon) [µM] | TGI (BT-549 breast) [µM] | TGI (SF-539 CNS) [µM] | TGI (NCI-H226 lung) [µM] | GI50 (CCRF-CEM leukemia) [µM] | GI50 (UO-31 renal) [µM] | GI50 (SF-539 CNS) [µM] | GI50 (RXF 393 renal) [µM] | GI50 (NCI-H226 lung) [µM] | GI50 (MDA-MB-435) [µM] | GI50 (RPMI-8226 leukemia) [µM] | GI50 (HCC-2998 colon) [µM] | GI50 (COLO 205 colon) [µM]
1 | Cc1cc(S(=O)(=O)Nc2nc3cc(-c4ccc(Cl)cc4)sc3c(=O)n2N)c(S)cc1Cl | 59 | > 100 | > 100 | > 100 | > 100 | > 100 | 56.1 | > 100 |  |  |  |  |  |  |  |  |  |  | 
2 | CCC(=O)ONC(=O)Cn1ccc([N+](=O)[O-])n1 | > 100 | > 100 | > 100 | > 100 | > 100 | > 100 | > 100 |  | > 100 | > 100 |  |  |  |  |  |  |  |  | 
3 | C[N+]12CCCCC1C(CN1C(=O)Cc3c4ccccc4c(c4ccccc34)CC1=O)CCC2 (stereo not given) | > 100 | > 100 | > 100 | > 100 | > 100 | > 100 | > 100 | > 100 | > 100 | > 100 |  |  |  |  |  |  |  |  | 
4 | CCOC(=O)NC(Nc1ccc([N+](=O)[O-])cc1)(C(F)(F)F)C(F)(F)F | > 100 | > 100 | 97.1 | 49.1 | > 100 | > 100 | > 100 | > 100 | > 100 | > 100 |  |  |  |  |  |  |  |  | 
5 | NC(CCC(=O)NC(CSCC1C(=O)Nc2ccccc21)C(=O)NCC(=O)O)C(=O)O (stereo not given) | > 24.8 | 1.74 | 2.33 | 14.8 | 6.52 | 10.6 | 10.5 | 15.9 | 18.3 | 21.9 |  |  |  |  |  |  |  |  | 
6 | CC(C(O)Cc1ccccc1)N(C)N=Nc1ccc([N+](=O)[O-])cc1 (stereo not given) | > 100 | 31.8 | 23.7 | 40.9 | 55.5 | 32.2 | 39.2 | 40.4 |  | 39.5 |  |  |  |  |  |  |  |  | 
7 | Oc1cccc(-c2nc3cc(F)ccc3s2)c1 | 73.8 | 52.5 | > 100 | 58.5 | 54.3 | 23.2 | 30 | 45.1 | 55.8 | 44 |  |  |  |  |  |  |  |  | 
8 | CC(=O)NC1c2ccccc2C(C)(C)C12CCC1(CC2)OCCO1 (stereo not given) | > 100 | > 100 | > 100 |  | > 100 | > 100 | > 100 | > 100 | > 100 | > 100 |  |  |  |  |  |  |  |  | 
9 | OCc1ccc(C2CC(c3ccco3)=NN2c2ccccc2)o1 (stereo not given) | > 100 | > 100 | > 100 |  | > 100 |  | > 100 |  | > 100 | > 100 |  |  |  |  |  |  |  |  | 
10 | CC(=O)O[C@]12CCCCCC1C1(O)C(O)CCCC[C@H]12 (stereo not given in full) | > 100 | > 100 | > 100 |  | > 100 |  | > 100 |  |  | > 100 |  |  |  |  |  |  |  |  | 
11 | O=C1/C(=C/c2ccc(Cl)cc2)CSc2ccccc21 | 9.26 | 36.1 | 36.3 | 20.7 | 5.29 |  | 64.3 | 78.6 | 35.7 | 45.2 |  |  |  |  |  |  |  |  | 
12 | C=CCOc1ccc(C2(O)c3ccccc3C3=NCCCN32)cc1 (stereo not given) | > 100 | > 100 |  | > 85.6 | > 78.5 | 43.3 | 43.5 | > 100 | > 100 | > 100 |  |  |  |  |  |  |  |  | 
13 | Nc1ccn(C2OC(CO)C(O)C2O)c(=O)c1 (stereo not given) | > 625 | > 625 | > 625 |  | 524 | > 625 | > 625 |  | > 625 | > 625 |  |  |  |  |  |  |  |  | 
14 | S=C(Nc1ccc2c(c1)oc1ccccc12)c1cccnc1 | > 100 | > 100 |  | > 100 | > 100 | > 100 | > 100 | > 100 |  | 96.1 |  |  |  |  |  |  |  |  | 
15 | COc1ccc2c(c1)CCN1CCc3ccccc3CC21 (stereo not given) | > 100 | 36 |  | > 100 | 54.9 | 48.1 | 46.1 | > 100 | > 100 | 83.5 |  |  |  |  |  |  |  |  | 
16 | Cc1cc(NCc2ccccc2)c2ccccc2[n+]1CCCCCCCCCC[n+]1c(C)cc(NCc2ccccc2)c2ccccc21 |  | 7.15 | 12.9 | 1.65 | 1.44 | 1.79 | 0.665 | 1.98 | 1.13 |  |  |  |  |  |  |  |  |  | 
17 | COc1c(C(C)C)cc2c3c1OC(=O)[C@@]31CCCC(C)(C)C1CC2 (stereo not given in full) | 59.7 | 57.8 | 56.3 |  | 59.8 | > 100 | 31.9 |  | 44.8 | 44.4 |  |  |  |  |  |  |  |  | 
18 | CN(C)c1ccc(C2SCC(=O)N2c2ccc(Oc3ccc(Cl)cc3)c(Cl)c2)cc1 (stereo not given) | 69.5 | 29.6 |  | 84 | 58.1 | 52.4 | 36.2 | 48.2 | 40.4 | > 100 |  |  |  |  |  |  |  |  | 
19 | COc1ccc(-c2nn(-c3ccc(NC(=O)Nc4cc(C(F)(F)F)cc(C(F)(F)F)c4)cc3)cc2-c2ccncc2)cc1Cl | > 100 | 6.33 | 3.87 | > 100 | 3.58 | 46.7 | 4.17 |  | 5.37 | 34.2 | 2.28 | 1.51 | 1.87 | 1.69 | 4.1 | 3.03 | 1.23 | 3.12 | 2.06
20 | CC1=NNC(=O)C1C(CC(=O)c1c[nH]c2ccccc12)C(=O)O (stereo not given) | > 100 | > 100 | > 100 | > 100 | > 100 |  | > 100 | > 100 | > 100 | > 100 |  |  |  |  |  |  |  |  | 
21 | O=c1c(C(c2ccc(Cl)cc2)c2c(O)c3ccccc3n(-c3ccccc3)c2=O)c(O)c2ccccc2n1-c1ccccc1 | > 100 | > 100 | > 100 |  | 69.4 | > 100 | > 100 |  | > 100 | > 100 |  |  |  |  |  |  |  |  | 
22 | CC(C)NC(=O)OCCN=c1c2ccccc2ccc2ccccc12 | 62.5 | 64.4 | > 100 | > 100 |  | > 100 | > 100 | > 100 | > 100 | > 100 |  |  |  |  |  |  |  |  | 

Reference: PubChem BioAssay (NCI)
